Like-named read-outs stand apart in the source and are kept apart here. Positions of bridges follow the written chain, without caps; N, C: chain ends. Residues, ends and D or L forms follow the SMILES beside them.
Test: Pharmacokinetics, 3-hour intravenous infusion of linear (non-acylated) polypeptides
Parameters: species or system Sprague-Dawley rats
Settings: rat, in vivo, 0.1 mg/kg
Experimental: Peptides were dissolved in sterile saline and administered as a 3-hour intravenous infusion to non-fasted male Sprague-Dawley rats (n=3 per group) via femoral vein cannula at a final dose of 0.100 mg/kg. […] Blood samples (approximately 250 μL) were collected for pharmacokinetic analysis via a jugular vein cannula at 0.25, 0.5, 1, 2, 3, 3.17, 3.33, 3.5, 4, 4.5, 5, and 6 hr post-start of infusion (long method) or at 1, 1.5, 2, 2.5, and 3 hr post-start of infusion (steady-state screening method). All samples were collected into microtainer tubes containing K2EDTA as anticoagulant and 25 μL of a protease inhibitor cocktail. Plasma was prepared by centrifugation and stored at −80° C. until analysis. The results of this analysis are shown in Table 9 and few exemplars in FIGS. 3a-3b.
A 60 μL aliquot of each plasma sample was placed into to a 96-well plate. To each well was added 6 μL of 0.5% Tween-20. Plates were then vortexed mixed for 10 minutes at 1200 rpm before 180 μL of 0.1% TFA in 2:1 ethanol:acetonitrile containing an appropriate internal standard was added to each well. Plates were vortex mixed for 5 min at 1300 rpm, and then centrifuged for 10 min at 2844×g. Supernatants (180 μL) were placed into a clean 96-well plate and evaporated under a nitrogen stream at 45° C. Residues were reconstituted in 80 μL of 20% acetonitrile (aq) containing 0.1% formic acid.
A […] aliquot of each plasma sample was diluted with […] of 10 mM ammonium acetate (pH 6.8) containing an appropriate internal standard and loaded onto an Oasis WCX microElution plate (Waters Corporation, Milford, MA) that had been pre-conditioned with […] of methanol and […] of deionized water. Samples were washed with […] of 5% ammonium hydroxide (aq) followed by […] of 20% acetonitrile in water. The analyte was eluted with […] of 5% formic acid in 75:25 acetonitrile:water. The eluent was dried under a nitrogen stream. Residues were reconstituted in 80 μL of 20% acetonitrile (aq) containing 0.1% formic acid.
All calibration standards were prepared in control rat plasma containing K2EDTA and protease inhibitor cocktail.
Samples and standards were analyzed by TurbolonSpray™ UPLC-MS/MS using a system consisting of a CTC HTS PAL auto-injector (Leap, Carrboro, NC), an Agilent Infinity 1290 system with column oven (Palo Alto, CA), a Valco switching valve (Houston, TX), and either an AB Sciex API 5600 TripleTOF™ or Sciex API 4000QTrap mass spectrometer (Framingham, MA). Samples were injected onto a 2.1×50 mm reverse phase C18 analytical column, typically a Waters CORTECS UPLC C18+, 1.6 μm (Waters Corporation, Milford, MA) or similar. […] Initial conditions consisted of 90% A and 10% B. The organic component was increased to 95% B over a period of 3-4 minutes, depending on the peptide. Typical flow rates were 600 μL/min. The column temperature was held constant at 40 or 50° C. Peptides were quantified by monitoring one or more product ions produced from a multiply charged parent ion.

[1] = linear polypeptides, 3-hour intravenous infusion, 0.100 mg/kg, male Sprague-Dawley rats, read-out: CL

clearance (iv) [mL/min/kg]	clearance [1] [mL/min/kg]	Compound
23.2		CC[C@H](C)[C@H](NC(=O)[C@@H]1CCCN1C(=O)CNC(=O)[C@H](Cc1ccccc1)NC(=O)[C@H](CCC(=O)O)NC(=O)[C@H](CC(N)=O)NC(=O)[C@H](CO)NC(=O)[C@H](CO)NC(=O)[C@H](CCCCN)NC(=O)[C@@H](NC(=O)[C@H](CC(C)C)NC(=O)[C@H](Cc1ccccc1)NC(=O)[C@H](CC(N)=O)NC(=O)[C@H](C)NC(=O)[C@H](CC(C)C)NC(=O)[C@H](CCCNC(=N)N)NC(=O)[C@H](CCC(N)=O)NC(=O)[C@@H](NC(=O)[C@H](C)NC(=O)[C@@H]1CSSC[C@H](NC(=O)[C@@H](N)CO)C(=O)N[C@@H](CC(N)=O)C(=O)N[C@@H]([C@@H](C)O)C(=O)N[C@@H](CO)C(=O)N[C@@H]([C@@H](C)O)C(=O)N1)[C@@H](C)O)C(C)C)C(=O)N[C@@H](CC(C)C)C(=O)N1CCC[C@H]1C(=O)N1CCC[C@H]1C(=O)N[C@H](C(=O)N[C@@H](CCCCN)C(=O)N[C@H](C(=O)NCC(=O)N[C@@H](CO)C(=O)N[C@@H](CCC(=O)O)C(=O)N[C@H](C(=O)N[C@@H](Cc1ccc(O)cc1)C(N)=O)[C@@H](C)O)C(C)C)[C@@H](C)O [Compound A43] (H-SCNTSTCATQRLANFLVKSSNEFGPILPPTKVGSETY-NH2; disulfide 2-7)
	14.2	CC[C@H](C)[C@H](NC(=O)[C@@H]1CCCN1C(=O)CNC(=O)[C@H](Cc1ccccc1)NC(=O)[C@H](CC(N)=O)NC(=O)[C@H](CC(N)=O)NC(=O)[C@H](CO)NC(=O)[C@H](CO)NC(=O)[C@H](Cc1c[nH]cn1)NC(=O)[C@@H](NC(=O)[C@H](CC(C)C)NC(=O)[C@H](CCC(=O)O)NC(=O)[C@H](CC(N)=O)NC(=O)[C@H](C)NC(=O)[C@H](CC(C)C)NC(=O)[C@H](CCCNC(=N)N)NC(=O)[C@H](CCC(N)=O)NC(=O)[C@@H](NC(=O)[C@H](C)NC(=O)[C@@H]1CSSC[C@H](NC(=O)[C@@H](N)CO)C(=O)N[C@@H](CC(N)=O)C(=O)N[C@@H]([C@@H](C)O)C(=O)N[C@@H](CO)C(=O)N[C@@H]([C@@H](C)O)C(=O)N1)[C@@H](C)O)C(C)C)C(=O)N[C@@H](CC(C)C)C(=O)N1CCC[C@H]1C(=O)N1CCC[C@H]1C(=O)N[C@H](C(=O)N[C@@H](CC(N)=O)C(=O)N[C@H](C(=O)NCC(=O)N[C@@H](CO)C(=O)N[C@@H](CC(N)=O)C(=O)N[C@H](C(=O)N[C@@H](Cc1ccc(O)cc1)C(N)=O)[C@@H](C)O)C(C)C)[C@@H](C)O [Compound A44] (H-SCNTSTCATQRLANELVHSSNNFGPILPPTNVGSNTY-NH2; disulfide 2-7)
	21.1	CC[C@H](C)[C@H](NC(=O)[C@@H]1CCCN1C(=O)CNC(=O)[C@H](Cc1ccccc1)NC(=O)[C@H](CC(N)=O)NC(=O)[C@H](CC(N)=O)NC(=O)[C@H](CO)NC(=O)[C@H](CO)NC(=O)[C@H](CCCNC(=N)N)NC(=O)[C@H](Cc1c[nH]cn1)NC(=O)[C@H](CC(C)C)NC(=O)[C@H](CCC(=O)O)NC(=O)[C@H](CC(N)=O)NC(=O)[C@H](C)NC(=O)[C@H](CC(C)C)NC(=O)[C@H](CCCNC(=N)N)NC(=O)[C@H](CCC(N)=O)NC(=O)[C@@H](NC(=O)[C@H](C)NC(=O)[C@@H]1CSSC[C@H](NC(=O)[C@@H](N)CO)C(=O)N[C@@H](CC(N)=O)C(=O)N[C@@H]([C@@H](C)O)C(=O)N[C@@H](CO)C(=O)N[C@@H]([C@@H](C)O)C(=O)N1)[C@@H](C)O)C(=O)N[C@@H](CC(C)C)C(=O)N1CCC[C@H]1C(=O)N1CCC[C@H]1C(=O)N[C@H](C(=O)N[C@@H](CC(N)=O)C(=O)N[C@H](C(=O)NCC(=O)N[C@@H](CO)C(=O)N[C@@H](CC(N)=O)C(=O)N[C@H](C(=O)N[C@@H](Cc1ccc(O)cc1)C(N)=O)[C@@H](C)O)C(C)C)[C@@H](C)O [Compound A45] (H-SCNTSTCATQRLANELHRSSNNFGPILPPTNVGSNTY-NH2; disulfide 2-7)
